Where two headings read alike, the source gives them in different places.
Key:
[1] = test system: human ovarian tumor xenograft (pgp−) A121; experiment: In vivo tumor growth assay, A121 xenograft in SCID mice; conditions: for antitumor effect (in words): human ovarian tumor xenograft (pgp−) A121, SCID mice; for Tumor free mice/Group: no palpable tumor on day 197; for Tumor free mice/Group / Days to 600 mm^3 Median / Growth Delay / Toxicity: number of animals who either died or lost greater than 20% body weight: A121; for Days to 600 mm^3 Median / Growth Delay / Toxicity: number of animals who either died or lost greater than 20% body weight: SCID mice
Method: (§1) Female severe combined immune deficient, (SCID) mice aged six to eight weeks were obtained from either the in-house breeding facility at Roswell Park Cancer Institute or Taconic (Germantown, N.Y.). All aspects of animal care complied with the Institutional Animal Care and Use Committee guidelines. […] Tumors were initiated by implantation of approximately 50 mg of non-necrotic tumor fragments on the right flank using a 12-guage trocar needle. Chemotherapy was started when the tumor was established as a palpable mass, (approximately 50-100 mm^3 size). Therapy consisted of i.v. injections through the tail vein, given four times, three days apart. Each drug treatment group or drug free vehicle consisted of 4-5 mice per group, untreated controls contained 10 mice per group.
(§2) These were used for comparison purposes. DHA-taxoids and other omega-3 fatty acid-taxoids were prepared as a 30 mg/mL stock solution in equal parts of Tween 80 (polyoxyethylene-sorbitan monooleate; purchased from Sigma Chemical Company) and absolute ethanol. To stablize the formulation of the DHA-taxoids and other omega-3 fatty acid-taxoids, antioxidants, L-ascorbic acid (3.9 mM) and α-tocopherol (2.0 mM), were added. Each stock solution was further diluted before use in 0.9% NaCl (saline) so that the appropriate concentration of each drug could be injected i.v. via the tail vein, in a volume of approximately 0.4 mL for a 20 g mouse. Each drug was administered once a day on […].
(§3) For each animal, the tumor length (1) and width (w), each in mm, were measured using electronic calipers and recorded every 3-4 days. Tumor volume (v), in mm^3, was calculated using the formula: v=0.4(l×w^2). The time in days to the pre-determined target tumor volume of 600 mm^3 was linearly interpolated from a plot of log(volume) versus time. Statistically significant differences in tumor volumes between control and drug-treated mice were determined by the Cox-Mantel test. […] All statistical tests were two-sided.

[2] = test system: pgp+ human colon tumor xenograft, DLD-1; conditions: for Days to 600 mm^3 Median / Growth Delay / Toxicity: number of animals who either died or lost greater than 20% body weight: SCID mice; for Days to 600 mm^3 Median / Growth Delay / Toxicity: number of animals who either died or lost greater than 20% body weight / Tumor free mice/Group: DLD-1; for Tumor free mice/Group: tumors less than 600 mm^3 on day 201
Method: as §1, §2, §3

[3] = test system: Madison 109 subcutaneous lung tumor; conditions: cited from earlier work
[4] = test system: human breast cancer cell line MCF7-MDR; conditions: drug-resistant, MDR phenotype; cited from earlier work
[5] = cited from earlier work
[6] = test system: human colon carcinoma SW-620 xenografts; conditions: SW-620 xenografts in mice; cited from earlier work
[7] = total dose 90 mg/kg (30 mg/kg/inj) i.v.
[8] = total dose 60 mg/kg (20 mg/kg/inj) i.v.
[9] = total dose 240 mg/kg (80 mg/kg/inj) i.v. day 5, 8 and 11
[10] = total dose 240 mg/kg (80 mg/kg/inj) i.v.
[11] = total dose 75 mg/kg (25 mg/kg/inj) i.v. day 5, 8 and 11
[12] = total dose 75 mg/kg (25 mg/kg/inj) i.v.
[13] = total dose 150 mg/kg (50 mg/kg/inj) i.v. day 5, 8 and 11
[14] = total dose 150 mg/kg (50 mg/kg/inj) i.v.

SMILES | antitumor effect (in words) [1] | Days to 600 mm^3 Median [2, 9] [days] | Growth Delay [2, 10] [days] | Toxicity: number of animals who either died or lost greater than 20% body weight [2, 10] | Tumor free mice/Group [2, 10] | Days to 600 mm^3 Median [2, 11] [days] | Growth Delay [2, 12] [days] | Tumor free mice/Group [2, 12] | Days to 600 mm^3 Median [2, 13] [days] | Growth Delay [2, 14] [days] | Toxicity: number of animals who either died or lost greater than 20% body weight [2, 14] | Tumor free mice/Group [2, 14] | further results
CC/C=C\C/C=C\C/C=C\C/C=C\C/C=C\C/C=C/CCC(=O)O[C@@H](C(=O)O[C@H]1C[C@@]2(O)[C@@H](OC(=O)c3ccccc3)C3[C@](C)(C(=O)[C@H](OC(=O)N(C)C)C(=C1C)C2(C)C)[C@@H](O)C[C@H]1OC[C@@]31OC(C)=O)[C@H](C=C(C)C)NC(=O)OC(C)(C)C (stereo partly shown) [DHA-SB-T-1216] | effective tumor growth delay | – | – | – | – | – | – | – | – | – | – | – | Tumor free mice/Group [1, 7]: 1/5; Days to 600 mm^3 Median [1, 7]: >197 days; Growth Delay [1, 7]: >186 days; Toxicity: number of animals who either died or lost greater than 20% body weight [1, 7]: 4
CC(=O)O[C@H]1C(=O)[C@@]2(C)[C@H]([C@H](OC(=O)c3ccccc3)[C@]3(O)C[C@H](OC(=O)[C@H](O)[C@@H](NC(=O)c4ccccc4)c4ccccc4)C(C)=C1C3(C)C)[C@]1(OC(C)=O)CO[C@@H]1C[C@@H]2O [Paclitaxel, reference compound] | – | – | – | – | – | – | – | – | – | – | – | – | Days to 600 mm^3 Median ([2]; total dose 60 mg/kg (20 mg/kg/inj) i.v. day 5, 8 and 11): 22 days; Growth Delay [2, 8]: 8 days; Toxicity: number of animals who either died or lost greater than 20% body weight [2, 8]: 0; Tumor free mice/Group [2, 8]: 0/3; Tumor free mice/Group [1, 8]: 0/5; Days to 600 mm^3 Median [1, 8]: 94 days; Growth Delay [1, 8]: 83 days; Toxicity: number of animals who either died or lost greater than 20% body weight [1, 8]: 0; regression of the tumors ([3]; optimum dose of 20 mg/kg, mice): neither complete nor partial regression; IC50 [4]: 300 to 800 nM
CC/C=C\C/C=C\C/C=C\C/C=C\C/C=C\C/C=C/CCC(=O)O[C@@H](C(=O)O[C@H]1C[C@@]2(O)[C@@H](OC(=O)c3ccccc3)C3[C@](C)(C(=O)[C@H](OC(C)=O)C(=C1C)C2(C)C)[C@@H](O)C[C@H]1OC[C@@]31OC(C)=O)[C@@H](NC(=O)c1ccccc1)c1ccccc1 (stereo partly shown) [DHA-Paclitaxel, reference compound] | – | 18 | 4 | 0 | 0/5 | – | – | – | – | – | – | – | Tumor free mice/Group [1, 10]: 2/5; Days to 600 mm^3 Median [1, 10]: 197 days; Growth Delay [1, 10]: 186 days; Toxicity: number of animals who either died or lost greater than 20% body weight [1, 10]: 0; duration of sustained regression ([3]; optimum dose of 120 mg/kg, all mice): sixty; regression of lung tumor xenografts ([3]; optimum dose of 120 mg/kg, mice): complete regression; lower clearance rate than paclitaxel ([5]; mice): 94 fold; stability in plasma ([5]; plasma): stable in plasma
CC/C=C\C/C=C\C/C=C\C/C=C\C/C=C\C/C=C/CCC(=O)O[C@@H](C(=O)O[C@H]1C[C@@]2(O)[C@@H](OC(=O)c3ccccc3)C3[C@](C)(C(=O)[C@H](OC(=O)CC)C(=C1C)C2(C)C)[C@@H](O)C[C@H]1OC[C@@]31OC(C)=O)[C@H](CC(C)C)NC(=O)OC(C)(C)C (stereo partly shown) [DHA-SB-T-1103, 2′-Docosahexaenoyl-3′-dephenyl-3′-(2-methylpropyl)-10-propanoyldocetaxel] | – | – | – | – | – | 18 | 4 | 0/5 | – | – | – | – | –
CC/C=C\C/C=C\C/C=C\C/C=C\C/C=C\C/C=C/CCC(=O)O[C@@H](C(=O)O[C@H]1C[C@@]2(O)[C@@H](OC(=O)c3ccccc3)C3[C@](C)(C(=O)[C@H](OC(=O)C4CC4)C(=C1C)C2(C)C)[C@@H](O)C[C@H]1OC[C@@]31OC(C)=O)[C@H](CC(C)C)NC(=O)OC(C)(C)C (stereo partly shown) [DHA-SB-T-1104, 2′-Docosahexaenoyl-3′-dephenyl-3′-(2-methyl-1-propyl)-10-cyclopropanecarbonyldocetaxel] | effective tumor growth delay | 18 | 4 | 0 | 0/5 | – | – | – | – | – | – | – | Tumor free mice/Group [1, 10]: 0/5; Days to 600 mm^3 Median [1, 10]: 126 days; Growth Delay [1, 10]: 115 days; Toxicity: number of animals who either died or lost greater than 20% body weight [1, 10]: 0
CC/C=C\C/C=C\C/C=C\C/C=C\C/C=C\C/C=C/CCC(=O)O[C@@H](C(=O)O[C@H]1C[C@@]2(O)[C@@H](OC(=O)c3ccccc3)C3[C@]4(OC(C)=O)COC4C[C@H](O)[C@@]3(C)C(=O)[C@H](O)C(=C1C)C2(C)C)[C@@H](NC(=O)OC(C)(C)C)c1ccccc1 (stereo partly shown) [DHA-Docetaxel, reference compound] | – | – | – | – | – | 31 | 17 | 0/4 | 48 | 34 | 0 | 0/4 | Toxicity: number of animals who either died or lost greater than 20% body weight [2, 12]: 0
CC/C=C\C/C=C\C/C=C\C/C=C\C/C=C\C/C=C\CCC(=O)O[C@@H](C(=O)O[C@@H]1C(C)=C2[C@@H](OC(C)=O)C(=O)[C@@]3(C)[C@H]([C@H](OC(=O)c4ccccc4)[C@@]4(OC(=O)O[C@@H]14)C2(C)C)[C@]1(OC(C)=O)CO[C@@H]1C[C@@H]3O)[C@H](CC(C)C)NC(=O)OC(C)(C)C [DHA-IDN-5109, 2′-Docosahexaenoyl-3′-dephenyl-3′-(2-methylpropyl)-10-acetyldocetaxel-1,14-carbonate] | – | – | – | – | – | – | – | – | 14 | 0 | 0 | 0/5 | –
CC/C=C\C/C=C\C/C=C\C/C=C\C/C=C\C/C=C\CCC(=O)O[C@@H](C(=O)O[C@H]1C[C@@]2(O)[C@@H](OC(=O)c3ccccc3)[C@@H]3[C@]4(OC(C)=O)CO[C@@H]4C[C@H](O)[C@@]3(C)C(=O)[C@H](OC(=O)C3CC3)C(=C1C)C2(C)C)[C@H](C=C(C)C)NC(=O)OC(C)(C)C [DHA-SB-T-1214, 2′-Docosahexaenoyl-3′-dephenyl-3′-(2-methyl-1-propenyl)-10-cyclopropanecarbonyldocetaxel] | – | >201 | >187 | 0 | 5/5 | – | – | – | – | – | – | – | survival of mice ([2]; day 201, DLD-1, SCID mice): all mice were alive on day 201; tumor detected in treated mice ([2]; day 201, DLD-1, SCID mice): no trace of tumor was detected; antitumor effect (in words) ([2]; drug-resistant human colon tumor xenografts in SCID mice): remarkable antitumor effect
CC(=O)O[C@H]1C(=O)[C@@]2(C)[C@H]([C@H](OC(=O)c3ccccc3)[C@]34OC(=O)O[C@H]3[C@H](OC(=O)[C@H](O)[C@H](CC(C)C)NC(=O)OC(C)(C)C)C(C)=C1C4(C)C)[C@]1(OC(C)=O)CO[C@@H]1C[C@@H]2O [IDN-5109, ortataxel, reference compound] | – | – | – | – | – | – | – | – | 46 | 32 | 0 | 0/3 | activity against xenografts (in words) [6]: impressive activity
CC/C=C\C/C=C\C/C=C\C/C=C\C/C=C\C/C=C/CCC(=O)O[C@@H](C(=O)O[C@H]1C[C@@]2(O)[C@@H](OC(=O)c3ccccc3)C3[C@](C)(C(=O)[C@H](OC(=O)CC)C(=C1C)C2(C)C)[C@@H](O)C[C@H]1OC[C@@]31OC(C)=O)[C@H](C=C(C)C)NC(=O)OC(C)(C)C (stereo partly shown) [DHA-SB-T-1213, 2′-Docosahexaenoyl-3′-dephenyl-3′-(2-methyl-1-propenyl)-10-propanoyldocetaxel] | excellent results | – | – | – | – | 68 | 54 | 0/5 | – | – | – | – | Tumor free mice/Group [1, 7]: 4/5; Days to 600 mm^3 Median [1, 7]: >197 days; Growth Delay [1, 7]: >186 days
